Like-named read-outs stand apart in the source and are kept apart here.
Assays:
[1] = tested on: hair cells of cochlea organ of corti cultures; test: in vitro
Procedure: For example, an ototoxicity test that can be used includes the steps of (1) treating organ of corti cultures with a compound of the invention and a parent aminoglycoside compound for a certain period of time (e.g., 1 hour), respectively; (2) washing and then culturing the treated tissue for some period of time (e.g., 2 days); (3) fixing and staining the tissue so that hair cell counts can be obtained; and (4) comparing the hair cell counts between the tissue treated by the compound of the invention and the tissue treated by the parent aminoglycoside compound.
Ototoxicity was also assayed using cochlea organ of corti cultures. The cultures were made at 4 days post birth (P4), cultured for 1 day and then treated for 1 hour with test compound. The tissue was then washed and cultured for an additional two days at which time the tissue is fixed and stained so that hair cell counts could be obtained. This method is similar to that used previously in characterizing aminoglycoside ototoxicity (Alharazneh et al., 2011). Fixed regions at the apex, middle, and base of the cochlea were imaged and cell counts obtained. […] Data were quantified across cochlear regions for this same compound. Quantification was by counting the number of outer hair cells present over a given distance. […] A dose response curve was created for the parent compound as well as the tested novel aminoglycoside. […] Other sisomicin derivatives were also tested for ototoxicity.

mouse [2] = test: LD50 after intraperitoneal injection in mouse model; format: in vivo; conditions: FIG. 5
mouse [3] = conditions: in vivo
E. coli = E. coli assay of minimal inhibitory (MIC) and minimal bactericidal (MBC) concentrations; format: cell-based; conditions: FIGS. 1A and 1B
Procedure: FIGS. 1A and 1B are bar graphs showing antimicrobial activities of a variety of sisomicin derivatives (MS=methyl sulfonyl, PS=phenyl sulfonyl, BZ=benzoyl, SiRho=rhodamine; and 1N and 3″ indicate substituents' position on sisomicin). The negative values reflect an arbitrary value indicating no detectable level of activity.
Both antimicrobial activity and ototoxicity in several of the synthesized compounds were assessed. To test antimicrobial activity, an E. coli assay was used to test both minimal inhibitory concentrations (MIC) as well as minimal bactericidal concentrations (MBC). A cross section of results was presented in FIG. 1, for control and a variety of tested compounds. […] Antimicrobial activity remained stable for each compound over time.

CN[C@@H]1[C@@H](O)[C@@H](O[C@@H]2[C@@H](O)[C@H](O[C@H]3OC(CN)=CC[C@H]3N)[C@@H](N)C[C@H]2NC(=O)c2ccccc2)OC[C@]1(C)O [1N benzoyl sisomicin, 1-benzoyl sisomicin] was tested, and the “less toxic than sisomicin (ototoxicity)” value ([1]; 1 h) was 30%.

CN[C@@H]1[C@@H](O)[C@@H](O[C@@H]2[C@@H](O)[C@H](O[C@H]3OC(CN)=CC[C@H]3N)[C@@H](N)C[C@H]2NS(=O)(=O)c2ccccc2)OC[C@]1(C)O [1N phenyl sulfonyl sisomicin, 1-Benzenesulfonyl-sisomicin] was tested, and the “less toxic than sisomicin (ototoxicity)” value ([1]; 1 h) was “about 80%”.

With CN([C@@H]1[C@@H](O)[C@@H](O[C@@H]2[C@@H](O)[C@H](O[C@H]3OC(CN)=CC[C@H]3N)[C@@H](N)C[C@H]2NS(C)(=O)=O)OC[C@]1(C)O)S(C)(=O)=O [1N,3″N-methyl sulfonyl sisomicin, 1,3″-N-bis-methylsulfonyl sisomicin] the “ototoxicity compared in words” value ([1]; 1 h) was “about equally non-ototoxic as 1N-methyl sulfonyl sisomicin”.

For CN([C@@H]1[C@@H](O)[C@@H](O[C@@H]2[C@@H](O)[C@H](O[C@H]3OC(CN)=CC[C@H]3N)[C@@H](N)C[C@H]2NS(=O)(=O)c2ccccc2)OC[C@]1(C)O)S(=O)(=O)c1ccccc1 [1N,3″N-phenyl sulfonyl sisomicin, 1,3″-dibenzenesulfonyl-sisomicin], the “ototoxicity compared in words” value [1] was “about equally ototoxic as sisomicin”.

CN[C@@H]1[C@@H](O)[C@@H](O[C@@H]2[C@@H](O)[C@H](O[C@H]3OC(CN)=CC[C@H]3N)[C@@H](N)C[C@H]2NS(C)(=O)=O)OC[C@]1(C)O [1N-methyl sulfonyl sisomicin, 1-N-methylsulfonyl sisomicin] was tested, and the “LD50 relative to LD50 of the parent sisomicin (fold higher)” value (mouse [2]) was 3 ×, the Kd at 1 h [1] was 1500 µM and the “fold less toxic than the parent compound” value [1] was “more than ten-fold shift in sensitivity for toxicity”. For the same compound, the “hair cell loss at any of the cochlea regions tested” value [1] was “did not cause any hair cell loss”, the “hair cells in stained tissue (FIG. 2)” value [1] was “no hair cell loss” and the “fold less toxic than the parent compound” value ([1]; 1 h) was “more than 10 ×”. For the same compound, the “hair cell loss in histological preparations of the cochlea” value (mouse [3]) was “no loss of hair cells” and the “antimicrobial activity (MIC, MBC)” value (E. coli) was “retained antimicrobial activity”.

For CN(C(=O)c1ccccc1)[C@@H]1[C@@H](O)[C@@H](O[C@@H]2[C@@H](O)[C@H](O[C@H]3OC(CN)=CC[C@H]3N)[C@@H](N)C[C@H]2N)OC[C@]1(C)O [3″N-benzoyl sisomicin, 3″-Benzoyl sisomicin], the “less toxic than sisomicin (ototoxicity)” value ([1]; 1 h) was “about 60%”.

In the case of CN([C@@H]1[C@@H](O)[C@@H](O[C@@H]2[C@@H](O)[C@H](O[C@H]3OC(CN)=CC[C@H]3N)[C@@H](N)C[C@H]2N)OC[C@]1(C)O)S(C)(=O)=O [3″N-methyl sulfonyl sisomicin, 3″-methylsulfonyl sisomicin], the “ototoxicity compared in words” value ([1]; 1 h) is reported as “about equally non-ototoxic as 1N-methyl sulfonyl sisomicin”.

With CN([C@@H]1[C@@H](O)[C@@H](O[C@@H]2[C@@H](O)[C@H](O[C@H]3OC(CN)=CC[C@H]3N)[C@@H](N)C[C@H]2N)OC[C@]1(C)O)S(=O)(=O)c1ccccc1 [3″N-phenyl sulfonyl sisomicin, 3″-benzenesulfonyl-sisomicin] the “ototoxicity compared in words” value [1] was “about equally ototoxic as sisomicin”.

In the case of CN[C@@H]1[C@@H](O)[C@@H](O[C@@H]2[C@@H](O)[C@H](O[C@H]3OC(CN)=CC[C@H]3N)[C@@H](N)C[C@H]2N)OC[C@]1(C)O [sisomicin, reference compound], the Kd at 1 h [1] is reported as 120 µM, the “hair cells in stained tissue (FIG. 2)” value [1] is reported as “no hair cells remained” and the “outer hair cells killed, apex of cochlea” value ([1]; 1 h) is reported as “about 60%”. For the same compound, the “outer hair cells killed, base and middle of cochlea” value ([1]; 1 h) was “more than 90%” and the “hair cell loss in histological preparations of the cochlea” value (mouse [3]) was “significant hair cell loss”.

From US9238670B2, “Aminoglycoside antibiotics with reduced ototoxicity” (priority 2013, dated 2016)
